The record followed here is patent publication US20170022258A1, “PEPTIDES FOR USE IN THE TREATMENT OF IL-1 RELATED DISEASES AND CONDITIONS” (C4M PHARMACEUTICALS PTY LTD., priority 2011, published 2017).

One data set concerns the target T1, IL-1 receptor (Homo sapiens, UniProt P14778).
T1 construct: confluent human monocytes, which express the IL-1 receptor; endogenous in cells; host or cells: human monocytes
T1 sequence (P14778 18-569): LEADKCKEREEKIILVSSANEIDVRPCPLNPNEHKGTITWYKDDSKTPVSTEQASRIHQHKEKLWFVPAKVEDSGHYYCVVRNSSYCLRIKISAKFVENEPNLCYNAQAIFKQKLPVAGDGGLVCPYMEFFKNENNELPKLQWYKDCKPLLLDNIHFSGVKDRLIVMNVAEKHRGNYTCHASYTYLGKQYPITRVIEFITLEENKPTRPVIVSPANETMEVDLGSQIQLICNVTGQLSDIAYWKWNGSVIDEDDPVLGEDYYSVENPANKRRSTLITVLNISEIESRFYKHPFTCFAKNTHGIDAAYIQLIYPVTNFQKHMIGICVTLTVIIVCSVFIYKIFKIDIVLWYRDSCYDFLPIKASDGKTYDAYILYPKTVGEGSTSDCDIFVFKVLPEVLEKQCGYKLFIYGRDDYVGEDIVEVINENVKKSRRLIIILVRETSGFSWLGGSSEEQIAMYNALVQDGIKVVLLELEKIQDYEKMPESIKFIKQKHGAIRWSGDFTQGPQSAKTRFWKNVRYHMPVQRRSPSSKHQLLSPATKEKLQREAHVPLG
In words: Radioligand competition binding assay (125I-labeled IL-1α) on human monocytes. Particulars: IL-1 binding antagonism on human monocytes; average of three measurements and standard error. How it is done: Radioligand competition binding assays were performed in 96-well plates containing confluent human monocytes, which express the IL-1 receptor. Wells were washed three times with binding buffer, and binding buffer was placed in each well. Peptides were resuspended in dimethyl sulfoxide at 20 mM and diluted in binding buffer to the desired starting concentration. Using a Beckman robotic system, five 3-fold dilutions were prepared, and peptide solution was transferred to duplicate receptor-containing wells. To each well, radioactive ^125Iodine-labeled IL-Ia (Amersham) was added to a final concentration of 40 pM, and the plates were placed on a shaking platform at 4° C. for 2 hr. Plates were washed with PBS using a plate washer, and bound ^125I-labeled IL-la was eluted for 10 min with 0.1 M NaOH and counted in a gamma counter. IC50 values were determined by fitting the data to a two-parameter logistic equation. In all cases, nonspecific binding was determined by the addition of 3 μM of recombinant IL-Ia.
On the technique in general: Loss of bound radioactivity is the signal in a displacement assay; it reports binding, not function.

For data set [1], the system named is IL-1 stimulation of IL-8 in human skin fibroblasts. In words: Inhibition of IL-1 induced IL-8 in human fibroblasts. It counts as cell-based. Conditions: inhibition of IL-1 stimulation of IL-8 in human skin fibroblasts; average of three measurements and standard error; read-out: Binding (IC50 nM). On the procedure: Inhibition of IL-1 induced IL-8 in human fibroblasts was determined using normal human dermal fibroblast cells cultured in DMEM with 10% fetal calf serum in 48-well plates.
Twenty-four hours before initiation of the experiment, the medium was changed to DMEM with 0.2% fetal calf serum. Each peptide was added to confluent cells, which were then pulsed for 30 min with rIL-I,B (which was obtained from R & D Systems) at 50 pg/ml. The cells were washed four times with PBS, and fresh DMEM/0.2% fetal calf serum was added to each well. After 5 hr of incubation, the culture media were collected and analyzed by ELISA for IL-8 (which was obtained from R & D Systems). Maximal activation, with IL-1 only, was 2530±13 pg/ml of IL-8. Nonspecific activation, determined in the presence of 1000-fold excess IL-1Ra, was 30±9 pg/ml of IL-8 (n=3).

Data set [2] can be described thus: Solubility of peptide under different solvent conditions. Format: physicochemical. Particulars: 30 min room temperature. How it is done:
100 mg of each peptide was added to 100 ml total of water plus the solvents, and the solution was gently agitated for 30 min at room temperature.

The nature of data set [3]: Stability of peptide once dissolved in solution (1 month). Format: physicochemical. Conditions: 1 mg in 5 ml water, bicarbonate and benzyl alcohol (19, 4) or methanol (13, 14). How it is done:
Each of the peptides having the sequences 13, 14, 19 and 4 were tested to determine their stability in a solution containing (preferred composition above) water, bicarbonate and either benzyl alcohol (peptide 19 and 4) or methanol (peptide 13 and 14). Each of the peptides were held for a period of 1 month at either 4° C. or at room temperature.
1 mg of each peptide was added to the water, bicarbonate and either benzyl alcohol or methanol solution and the solution was gently agitated for 1 hour at room temperature before standing at either 4° C. or at room temperature for a period of 1 month.

Data set [4] is described as follows: Human plasma stability trials. Format: in vitro ADME. Particulars: 37° C., 12 hours, read-out: ½ Life human plasma. On the procedure:
1 mg of each peptide was added to the plasma and the solution was gently agitated for 2 minutes at room temperature before standing at 37° C. for a period of 12 hours.

For data set [5], the system named is thoroughbred having equine laminitis. In words: Effect of peptides on equine laminitis (Obel Lameness Grades). It counts as in vivo, horse. On the procedure:
Each of the peptides having the sequences 13, 14, 19 and 4 were also tested to determine their effect on equine laminitis. Each peptide was administered intravenously to a thoroughbred having equine laminitis. The peptides were prepared as compositions containing 1 mg of peptide dissolved in 5 ml of a solution comprising water, bicarbonate and either benzyl alcohol or methanol. The effect of the peptides on equine laminitis was judged by the Obel Lameness Grades, which is a system of rating degrees of lameness resulting from laminitis. […] Obel Grade III horses do resist having a foreleg lifted, and are reluctant to walk. Obel Grade IV horses will walk only if forced. The Obel Score for each of the horses was measured before administration of the peptide and 24 hours after injection of the peptide. […] The effect in reducing laminitis which was caused by one single injection of the peptides on laminitis was short-lived. Therefore, the duration of the effect of the peptides in reducing laminitis was further assessed by attending veterinarians.

The target in data set [6] is IL-1 receptor (IL-1R) expressed on human monocytes (human) (UniProt P14778). The experiment in a line: cell-based or functional assay.
Data set [7] shares this target. The experiment in a line: radioligand competition, 40 pM 125I-IL-1α on confluent human monocytes.

Like-named read-outs stand apart in the source and are kept apart here. Non-standard residues stand in square brackets, D forms with d. Residues, ends and D or L forms follow the SMILES beside them. No end group written: not given here.

One may read the IC50 as the midpoint of a concentration-inhibition curve. As usually defined, the solubility is the dissolved amount per volume that the medium holds. With `CC(=O)N[C@H](CC(C)C)C(=O)N1CCC[C@@H]1C(=O)N[C@H](CC(C)C)C(=O)N[C@H](C)C(=O)N[C@H](Cc1ccc(O)cc1)C(=O)N1CCC[C@@H]1C(=O)N[C@H](CCC(N)=O)C(=O)N[C@H](Cc1c[nH]c2ccccc12)C(=O)N[C@H](Cc1ccc(O)cc1)C(=O)N[C@H](Cc1ccc(O)cc1)C(=O)N[C@H](C)C(=O)N[C@H](CC(N)=O)C(=O)N[C@H](CO)C(=O)N[C@H](CCC(=O)O)C(=O)N[C@H](CCC(=O)O)C(=O)N[C@H](Cc1c[nH]c2ccccc12)C(=O)N[C@@H](C(=O)N[C@H](Cc1ccccc1)C(=O)N1CCC[C@@H]1C(=O)N[C@@H](C(=O)N[C@H](CCC(=O)O)C(=O)O)[C@H](C)O)[C@H](C)O` [SEQ ID NO. 14] (Ac-[dL][dP][dL][dA][dY][dP][dQ][dW][dY][dY][dA][dN][dS][dE][dE][dW][dT][dF][dP][dT][dE]-OH; C-terminus assumed), the IC50 at IL-1 receptor worked out at 9.2 nM; in data set [1], 11 nM. Besides, the solubility at 30 min is less than 1000 µg/mL in data set [2] (benzyl alcohol (0.1-1%) in water, benzyl alcohol (0.1-1%), 100 mg peptide in 100 ml, read-out: Solubility: Benzyl Alcohol); less than 1000 µg/mL in data set [2] (hydrochloric acid (0.1-1%) in water, hydrochloric acid (0.1-1%), 100 mg peptide in 100 ml water plus solvent, read-out: Solubility: Acid); more than 1000 µg/mL in data set [2] (methanol (1-10%) in water, methanol (1-10%), 100 mg peptide in 100 ml, read-out: Solubility: Methanol); less than 1000 µg/mL in data set [2] (sodium bicarbonate (0.1-1%) in water, sodium bicarbonate (0.1-1%), 100 mg peptide in 100 ml, read-out: Solubility: Base). For the same molecule, the “Stability of peptide once dissolved in solution (at 1 month), 4° C. (month)” value in data set [3] (4° C.) is given as 78%. In data set [3] (room temperature), the “Stability of peptide once dissolved in solution (at 1 month), Room Temp (month)” value turned out to be 18%. Moreover, the half-life in data set [4] came out at 5.55 h. For the same molecule, in data set [5] (1 mg intravenously, before vs 24 hours after injection, most negative = greatest improvement), the “Change in Obel Score” value is on record as −1.1. Moreover, the “Duration (days) of effect on laminitis” value in data set [5] (single 1 mg intravenous, averaged, report by veterinarians) is on record as 2 days.

B1: peptide of SEQ ID NO: 18 (Ac-…, D-amino acids) (peptide)
peptide: Ac-[dL][dP][dL][dA][dY][dP][dQ][dW][dY]G[dP][dT][dW][dE][dF][dS][dS][dV][dN][dA][dT]
modifications: not fully specified (residue 10); printed as Ac-LPLAYPQWYGPTWEFSSVNAT
In turn, B1 displayed an IC50, in vitro inhibition of IL-1 stimulation of IL-8 in human skin fibroblasts (rIL-1β 50 pg/ml, IL-8 ELISA) in data set [6] of 810 nM. For the same molecule, the IC50 in data set [7] came out at 190 nM.

B2: peptide of SEQ ID NO: 21 (Ac-…, D-amino acids) (peptide)
peptide: Ac-[dL][dP][dL][dA][dY][dP][dQ][dW][dY][dR][dE]G[dS][dQ][dR][dW][dR][dD][dY]G[dD]
modifications: not fully specified (residues 12, 20); printed as Ac-LPLAYPQWYREGSQRWRDYGD
As to B2, the IC50, in vitro inhibition of IL-1 stimulation of IL-8 in human skin fibroblasts (rIL-1β 50 pg/ml, IL-8 ELISA) in data set [6] amounted to 730 nM. In data set [7], this molecule returned an IC50 of 240 nM.

B3: peptide of SEQ ID NO: 16 (Ac-…, D-amino acids) (peptide)
peptide: Ac-[dL][dP][dL][dA][dY][dP][dQ][dW][dY][dY][dA][dN][dS][dE][dE][dW][dT][dF]
B3 showed an IC50, in vitro inhibition of IL-1 stimulation of IL-8 in human skin fibroblasts (rIL-1β 50 pg/ml, IL-8 ELISA) in data set [6] of 120 nM. Also, the IC50 in data set [7] was 22 nM.
